Measurements reported in ChEMBL document CHEMBL1201862, “PubChem BioAssay data set” (2004).
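Dose response: 5 concentrations. Exposure: 48 h. Format: 96-well plates. Endpoint: linear interpolation; highest concentration if not reached. GI50 marks 50% less growth.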 Calls of active or inactive are those of the source. Rule as the data show it: active = GI50 up to about 1.1 µM and inactive = higher.

Tests used:
Assay in all cases: growth of human tumour cells (NCI), 48 h
SNB-19 = system: SNB-19
CAKI-1 = system: CAKI-1
U-251 = system: U-251
SK-OV-3 = system: SK-OV-3
COLO 205 = system: COLO 205
LOX IMVI = system: LOX IMVI
HOP-92 = system: HOP-92
KM12 = system: KM12
NCI-H226 = system: NCI-H226
MDA-MB-435 = system: MDA-MB-435
HCC 2998 = system: HCC 2998
HOP-62 = system: HOP-62
SK-MEL-28 = system: SK-MEL-28
A549 = system: A549
OVCAR-3 = system: OVCAR-3
M14 = system: M14
IGROV-1 = system: IGROV-1
SK-MEL-2 = system: SK-MEL-2
PC-3 = system: PC-3
T47D = system: T47D

Compound | GI50 (SNB-19) | GI50 (CAKI-1) | GI50 (U-251) | GI50 (SK-OV-3) | GI50 (COLO 205) | GI50 (LOX IMVI) | GI50 (HOP-92) | GI50 (KM12) | GI50 (NCI-H226) | GI50 (MDA-MB-435) | GI50 (HCC 2998) | GI50 (HOP-62) | GI50 (SK-MEL-28) | GI50 (A549) | GI50 (OVCAR-3) | GI50 (M14) | GI50 (IGROV-1) | GI50 (SK-MEL-2) | GI50 (PC-3) | GI50 (T47D)
O=C(/C(=C/c1cccs1)c1ccccc1)c1ccccc1 | 30.5 µM (inactive) | > 100 µM (inactive) | 77.1 µM (inactive) | > 100 µM (inactive) | > 100 µM (inactive) | > 100 µM (inactive) | > 100 µM (inactive) | > 100 µM (inactive) | > 100 µM (inactive) | > 100 µM (inactive) | > 100 µM (inactive) | 7.21 µM (inactive) | > 100 µM (inactive) | 54.2 µM (inactive) | > 100 µM (inactive) | > 100 µM (inactive) | > 100 µM (inactive) | 40.2 µM (inactive) | 25.6 µM (inactive) | > 100 µM (inactive)
CCc1nc2ccc(NCCN(C)C)c3c(=O)c4ccccc4n1c23 | 2.57 µM (inactive) | 1.56 µM (inactive) | 0.796 µM (active) | 1.69 µM (inactive) | 0.307 µM (active) | 0.6 µM (active) | 0.592 µM (active) | 0.701 µM (active) | 1.07 µM (active) | 1 µM (active) | 0.762 µM (active) | 0.796 µM (active) | 2.44 µM (inactive) | 0.38 µM (active) | 0.979 µM (active) | 1.52 µM (inactive) | 0.265 µM (active) | 3.07 µM (inactive) | 0.8 µM (active) | 2.59 µM (inactive)
C=C1CC/C=C(/C(=O)O)CC[C@H]2[C@@H]1CC2(C)C | > 100 µM (inactive) | > 100 µM (inactive) | > 100 µM (inactive) | > 100 µM (inactive) | > 100 µM (inactive) | > 100 µM (inactive) | 70 µM (inactive) | > 100 µM (inactive) | > 100 µM (inactive) | > 100 µM (inactive) | > 100 µM (inactive) | > 100 µM (inactive) | > 100 µM (inactive) | > 100 µM (inactive) | > 100 µM (inactive) | > 100 µM (inactive) | > 100 µM (inactive) | > 100 µM (inactive) | > 100 µM (inactive) | > 100 µM (inactive)
Cc1ccc2c(c1)C(=C(C#N)C#N)CCCS2(=O)=O | > 100 µM (inactive) | > 100 µM (inactive) | > 100 µM (inactive) | > 100 µM (inactive) | > 100 µM (inactive) | > 100 µM (inactive) | > 100 µM (inactive) | > 100 µM (inactive) | > 100 µM (inactive) | > 100 µM (inactive) | > 100 µM (inactive) | > 100 µM (inactive) | > 100 µM (inactive) | > 100 µM (inactive) | > 100 µM (inactive) | > 100 µM (inactive) | > 100 µM (inactive) | > 100 µM (inactive) | > 100 µM (inactive) | > 100 µM (inactive)
COc1ccc(C(C)NNC(=O)c2ccncc2)c(OC)c1 (stereo not given) | > 100 µM (inactive) | > 100 µM (inactive) | > 100 µM (inactive) | > 100 µM (inactive) | > 100 µM (inactive) | > 100 µM (inactive) | > 100 µM (inactive) | > 100 µM (inactive) | > 100 µM (inactive) | > 100 µM (inactive) | > 100 µM (inactive) | > 100 µM (inactive) | > 100 µM (inactive) | > 100 µM (inactive) | > 100 µM (inactive) | > 100 µM (inactive) | > 100 µM (inactive) | > 100 µM (inactive) | > 100 µM (inactive) | > 100 µM (inactive)
CCCCCCc1nn2c(-c3ccncc3)nnc2s1 | > 10 µM (inactive) | > 10 µM (inactive) | > 10 µM (inactive) | > 10 µM (inactive) | > 10 µM (inactive) | > 10 µM (inactive) | 8.65 µM (inactive) | > 10 µM (inactive) | > 10 µM (inactive) | > 10 µM (inactive) | > 10 µM (inactive) | > 10 µM (inactive) | > 10 µM (inactive) | > 10 µM (inactive) | > 10 µM (inactive) | > 10 µM (inactive) | > 10 µM (inactive) | > 10 µM (inactive) | > 10 µM (inactive) | > 10 µM (inactive)
C1=CC2C=CC(C=C1)P2c1ccccc1 (stereo not given) | > 100 µM (inactive) | > 100 µM (inactive) | > 100 µM (inactive) | > 100 µM (inactive) | > 100 µM (inactive) | > 100 µM (inactive) | > 100 µM (inactive) | > 100 µM (inactive) | > 100 µM (inactive) | > 100 µM (inactive) | 0.0175 µM (active) | > 100 µM (inactive) | > 100 µM (inactive) | > 100 µM (inactive) | > 100 µM (inactive) | > 100 µM (inactive) | > 100 µM (inactive) | > 100 µM (inactive) | > 100 µM (inactive) | > 100 µM (inactive)
Oc1ccccc1/C=N/Nc1nc(N/N=C/c2ccccc2O)nc(N/N=C/c2ccccc2O)n1 | > 100 µM (inactive) | > 100 µM (inactive) | 47.1 µM (inactive) | 71.9 µM (inactive) | > 100 µM (inactive) | > 100 µM (inactive) | 21.1 µM (inactive) | > 100 µM (inactive) | 58.7 µM (inactive) | > 100 µM (inactive) | > 100 µM (inactive) | 44.6 µM (inactive) | > 100 µM (inactive) | > 100 µM (inactive) | 29.2 µM (inactive) | > 100 µM (inactive) | 45.4 µM (inactive) | 43.6 µM (inactive) | 78.2 µM (inactive) | 47.9 µM (inactive)
C[n+]1cccc2ccc3cccnc3c21 | 30.8 µM (inactive) | > 100 µM (inactive) | 18.5 µM (inactive) | 47.6 µM (inactive) | 17.7 µM (inactive) | 29 µM (inactive) | 57.7 µM (inactive) | 9.08 µM (inactive) | 20.6 µM (inactive) | 69.2 µM (inactive) | 49.2 µM (inactive) | 19.5 µM (inactive) | 55.7 µM (inactive) | 5.64 µM (inactive) | 26.3 µM (inactive) | 44.7 µM (inactive) | 76 µM (inactive) | 19.3 µM (inactive) | 27.5 µM (inactive) | 21 µM (inactive)
CC(=O)Nc1cc(C(=O)Nc2cc(C(=O)Nc3cc(C(=O)Nc4cc(C(=O)Nc5cc(C(=O)NCCC(=O)NCCCN(C)C)n(C)c5)n(C)c4)n(C)c3)n(C)c2)n(C)c1 | > 100 µM (inactive) | 19.5 µM (inactive) | 67.9 µM (inactive) | > 100 µM (inactive) | 46.8 µM (inactive) | 37.4 µM (inactive) | 33.5 µM (inactive) | 23.6 µM (inactive) | > 100 µM (inactive) | 36.8 µM (inactive) | 50.4 µM (inactive) | > 100 µM (inactive) | 67.6 µM (inactive) | > 100 µM (inactive) | > 100 µM (inactive) | > 100 µM (inactive) | > 100 µM (inactive) | > 100 µM (inactive) | > 100 µM (inactive) | 31.5 µM (inactive)
CC1=NN(C(=O)CC(=O)Nc2cccc(C)c2)C(=O)C1/N=N\c1ccc(S(=O)(=O)c2ccc(/N=N/C3C(=O)N(C(=O)CC(=O)Nc4cccc(C)c4)N=C3C)cc2)cc1 (stereo not given) | > 100 µM (inactive) | > 100 µM (inactive) | > 100 µM (inactive) | > 100 µM (inactive) | > 100 µM (inactive) | > 100 µM (inactive) | > 100 µM (inactive) | > 100 µM (inactive) | > 100 µM (inactive) | > 100 µM (inactive) | > 100 µM (inactive) | > 100 µM (inactive) | > 100 µM (inactive) | > 100 µM (inactive) | > 100 µM (inactive) | > 100 µM (inactive) | > 100 µM (inactive) | > 100 µM (inactive) | > 100 µM (inactive) | > 100 µM (inactive)
